A value given as a limit tells only on which side of the number the result lay.

Assay [1] addresses IκB-α kinase. The experiment in a line: IκB-α kinase inhibitory activity, in vitro kinase assay. It counts as biochemical.
Assay [2] addresses T1, p34^cdc2/cyclin B (CDC2) (Homo sapiens, UniProt P06493).
T1 construct: made in house; host or cells: Sf9 insect cells (baculovirus co-infection)
The assay is described as follows: CDK inhibition assay, p34cdc2/cyclin B kinase, histone H1 phosphorylation. Type of assay: biochemical. Here is the method:
Cyclin-dependent kinases (p34^cdc2, p33^cdk2) and cyclins (cyclin B, E) are produced in Sf9 insect cells coinfected with appropriate baculoviral constructs. The cells are harvested 68-72 hrs post infection in lysis buffer for 30 min on ice and the soluble fraction is recovered by centrifugation at 14.000 g for 10 min. The protein extract is stored at −80° C.
Lysis buffer: 50 mM Tris pH 7.4, 150 mM NaCl, 5 mM EDTA, 20 mM NaF, 1% Tween, 1 mM DTT, 0.1 mM PMSF, leupeptine, aprotonine.
To carry out experiments on kinetics under linear conditions, the final point test system for kinase activity measurement is used. The kinase is added to reaction mixture in such a way as to obtain linear activity with respect to the concentration of enzyme and with respect to time.
The p34^cdc2 and p33^cdk2 kinase inhibition determination involves the use of 1 mg/ml histone H1 (Sigma, type III-S) in the presence of 15 μM [γ-^32P]ATP ([…]) (Amersham) in a final volume of 20 μl. Kinase activity is determined at 30° C. in the kinase buffer.
Tested compounds are usually dissolved to 100 mM solutions in DMSO, final concentration of DMSO in reaction mixture never exceeds 1%. The controls contain suitable dilutions of DMSO.
After 10 min, addition 3×SDS sample buffer stops the incubations. Phosphorylated proteins are separated electrophoretically using 12.5% SDS polyacrylamide gel. The measurement of kinase activity is done using digital image analysis.
The kinase activity is expressed as a percentage of maximum activity, the apparent inhibition constants are determined by graphic analysis (FIG. 1).
Kinase buffer: 50 mM Hepes pH 7.4, 10 mM MgCl2, 5 mM EGTA, 10 mM 2-glycerolphosphate, 1 mM NaF, 1 mM DTT

T1 sequence (P06493 whole entry, species assumed): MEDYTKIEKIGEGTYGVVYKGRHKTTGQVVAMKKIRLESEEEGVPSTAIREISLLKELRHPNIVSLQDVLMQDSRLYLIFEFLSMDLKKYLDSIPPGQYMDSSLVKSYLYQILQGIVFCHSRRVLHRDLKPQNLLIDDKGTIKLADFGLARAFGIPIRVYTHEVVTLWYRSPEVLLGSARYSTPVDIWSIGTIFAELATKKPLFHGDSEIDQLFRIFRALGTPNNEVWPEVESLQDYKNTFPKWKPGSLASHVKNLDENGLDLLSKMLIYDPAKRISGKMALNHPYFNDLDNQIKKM
T1 sequence (P14635 whole entry partner, species assumed): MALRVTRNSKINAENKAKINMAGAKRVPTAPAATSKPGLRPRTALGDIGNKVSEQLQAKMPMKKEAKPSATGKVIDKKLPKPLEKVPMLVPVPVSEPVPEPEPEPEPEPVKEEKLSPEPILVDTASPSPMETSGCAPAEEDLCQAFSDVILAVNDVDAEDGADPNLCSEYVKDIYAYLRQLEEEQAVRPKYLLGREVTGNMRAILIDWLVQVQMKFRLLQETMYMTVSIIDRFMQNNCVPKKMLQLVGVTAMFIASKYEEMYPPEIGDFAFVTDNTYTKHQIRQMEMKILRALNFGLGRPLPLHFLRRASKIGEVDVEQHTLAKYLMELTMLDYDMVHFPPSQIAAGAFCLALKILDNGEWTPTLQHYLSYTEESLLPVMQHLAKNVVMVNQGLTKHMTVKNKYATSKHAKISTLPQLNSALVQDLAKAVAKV

Take `Cn1nnc2c(NCc3ccccc3)nc(NC3CCCCC3N)nc21` (centres unmarked): the IC50 (in general, the concentration at which inhibition is half-maximal) in assay [1] was 70 µM; in assay [2], 25 µM.
For `CC(=O)Oc1ccccc1CNc1nc(NCCO)nc2c1nnn2C` the same measures were 40 µM and 36 µM.
As for `CC(=O)c1ccccc1CNc1nc(NCCO)nc2c1nnn2C`, the IC50 in assay [1] is above 100 µM; in assay [2], 70 µM.
For `Cn1nnc2c(NCc3c(N)cccc3Cl)nc(NCCO)nc21` the same measures were 68 µM and 52 µM.
For `Cn1nnc2c(NCc3cccc(Cl)c3O)nc(NCCO)nc21` the same measures were above 100 µM and 70 µM.
For `COc1cccc(CNc2nc(NCCO)nc3c2nnn3C)c1O` the same measures were above 100 µM and 43 µM.
As for `Cc1cccc(CNc2nc(NCCO)nc3c2nnn3C)c1O`, the half-inhibitory concentration (IC50) in assay [1] was above 100 µM; in assay [2], 85 µM.
`Cn1nnc2c(NCc3ccccc3O)nc(NCCO)nc21`: the concentration for half-maximal inhibition (IC50) in assay [1] turned out to be 45 µM; in assay [2], 23 µM.
For `Cn1nnc2c(NCc3ccc(Cl)c(N)c3N)nc(NCCO)nc21`, the concentration for half-maximal inhibition (IC50) in assay [1] is above 100 µM; in assay [2], 68 µM.
Regarding `COc1cc(O)c(CNc2nc(NCCO)nc3c2nnn3C)cc1O`, in assay [2], the IC50 worked out at 22 µM.
Consider `Cn1nnc2c(NCc3c(O)cc(Cl)cc3O)nc(NCCO)nc21`, for which the figures for the half-inhibitory concentration (IC50) in assay [1] and in assay [2] were above 100 µM and 22 µM, respectively.
In turn, `COc1cc(O)c(CNc2nc(NCCO)nc3c2nnn3C)c(O)c1` registered an IC50 in assay [2] of 18.2 µM.
`CC(=O)Oc1cccc(CNc2nc(NCCO)nc3c2nnn3C)c1`: the half-inhibitory concentration (IC50) in assay [1] was 50 µM; in assay [2], 48 µM.
The corresponding values for `CC(=O)c1cccc(CNc2nc(NCCO)nc3c2nnn3C)c1` are above 100 µM and 80 µM.
The corresponding values for `Cn1nnc2c(Nc3ccc(Cl)c(N)c3)nc(NCCO)nc21` are above 100 µM and above 100 µM.
For `Cn1nnc2c(NCc3ccc(Cl)c(N)c3)nc(NCCO)nc21`, the half-inhibitory concentration (IC50) in assay [2] came to 50 µM.
Take `Cn1nnc2c(Nc3ccc(Cl)c(C(=O)O)c3)nc(NCCO)nc21`: the IC50 in assay [1] is above 100 µM; in assay [2] it was 43 µM.
For `Cn1nnc2c(Nc3ccc(O)c(C(=O)O)c3)nc(NCCO)nc21` the same measures were above 100 µM and 58 µM.
For `Cn1nnc2c(Nc3ccc(C(=O)O)c(Cl)c3)nc(NCCO)nc21` the same measures were above 100 µM and 52 µM.
The corresponding values for `Cn1nnc2c(Nc3cc(N)cc(Cl)c3)nc(NCCO)nc21` are above 100 µM and 50 µM.
Regarding `Cn1nnc2c(Nc3cccc(Cl)c3)nc(NCCO)nc21`, in assay [1], the 50% inhibitory concentration (IC50) was above 100 µM.
Turning to `Cn1nnc2c(NCc3cccc(O)c3)nc(NCCO)nc21`, the IC50 turned out to be 40 µM in assay [1] and 17 µM in assay [2].
In the case of `Cn1nnc2c(NCc3ccc(O)c(O)c3)nc(NCCO)nc21`, the 50% inhibitory concentration (IC50) in assay [1] was above 100 µM.
For the compound `Cn1nnc2c(Nc3ccc(Br)cc3)nc(NCCO)nc21`, the IC50 in assay [1] and in assay [2] was above 100 µM each time.
In the case of `Cn1nnc2c(Nc3ccc(Cl)cc3)nc(NCCO)nc21`, the IC50 in assay [1] and in assay [2] was above 100 µM throughout.
In assay [1], `CN(Cc1ccc(O)c(O)c1)c1nc(NCCO)nc2c1nnn2C` displayed a concentration for half-maximal inhibition (IC50) above 100 µM.
`CC(C)n1nnc2c(NCc3ccccc3)nc(NCCO)nc21`: the IC50 in assay [1] and in assay [2] was above 100 µM throughout.
For the compound `Cn1nnc2c(NCc3ccccc3)nc(NCCCN)nc21`, the IC50 in assay [1] is above 100 µM; in assay [2], 90 µM.
For `CC(C)n1nnc2c(NCc3ccccc3)nc(NC3CCC(N)CC3)nc21` (centres unmarked) the same measures were 48 µM and 3.7 µM.
For `Cn1nnc2c(NCc3ccccc3)nc(NC3CCC(N)CC3)nc21` (centres unmarked) the same measures were 40 µM and 16 µM.
The corresponding values for `CC(C)n1nnc2c(NCc3ccccc3)nc(N(CCO)CCO)nc21` are above 100 µM and 95 µM.
In turn, `Cn1nnc2c(NCc3ccccc3)nc(N(CCO)CCO)nc21` registered an IC50 in assay [1] above 100 µM.
Consider `CC(C)[C@H](CO)Nc1nc(NCc2c(N)cccc2Cl)c2nnn(C(C)C)c2n1`, for which the half-maximal inhibitory concentration (IC50) in assay [1] is above 100 µM; in assay [2], 10 µM.
The corresponding values for `CC(C)[C@H](CO)Nc1nc(NCc2cccc(Cl)c2O)c2nnn(C(C)C)c2n1` are 60 µM and 32 µM.
Regarding `COc1cccc(CNc2nc(N[C@@H](CO)C(C)C)nc3c2nnn3C(C)C)c1O`, the results for the IC50 in assay [1] and in assay [2] were above 100 µM and 55 µM, respectively.
For `Cc1cccc(CNc2nc(N[C@@H](CO)C(C)C)nc3c2nnn3C(C)C)c1O` the same measures were 55 µM and 18 µM.
For `CC(C)[C@H](CO)Nc1nc(NCc2ccc(Cl)c(N)c2N)c2nnn(C(C)C)c2n1` the same measures were above 100 µM and 34 µM.
The corresponding values for `CC(C)[C@H](CO)Nc1nc(NCc2ccc(Cl)c(O)c2O)c2nnn(C(C)C)c2n1` are above 100 µM and 11 µM.
As to `CC(C)[C@H](CO)Nc1nc(NCc2cc(O)c(Cl)cc2O)c2nnn(C(C)C)c2n1`, the values for the IC50 in assay [1] and in assay [2] were above 100 µM and 8 µM, respectively.
In the case of `COc1cc(O)c(CNc2nc(N[C@@H](CO)C(C)C)nc3c2nnn3C(C)C)c(O)c1`, the 50% inhibitory concentration (IC50) in assay [1] was above 100 µM; in assay [2], 10 µM.
Turning to `CC(C)[C@H](CO)Nc1nc(NCc2c(O)cc(Cl)cc2O)c2nnn(C(C)C)c2n1`, half-maximal inhibition in assay [2] (IC50) required 18 µM. In other words, the double-digit micromolar range.
For the compound `CC(C)[C@H](CO)Nc1nc(NCc2ccc(Cl)c(N)c2)c2nnn(C(C)C)c2n1`, the values for the half-inhibitory concentration (IC50) in assay [1] and in assay [2] were above 100 µM and 30 µM, respectively.
As to `CC(C)[C@H](CO)Nc1nc(Nc2ccc(C(=O)O)c(Cl)c2)c2nnn(C(C)C)c2n1`, half-maximal inhibition in assay [2] (IC50) was put at 25 µM.
In the case of `CC(C)[C@H](CO)Nc1nc(Nc2cc(N)cc(Cl)c2)c2nnn(C(C)C)c2n1`, the IC50 in assay [1] came out at 80 µM; in assay [2], 27 µM.
For `CC(C)[C@H](CO)Nc1nc(NCc2ccc(O)c(O)c2)c2nnn(C(C)C)c2n1` the same measures were above 100 µM and 20 µM.
Take `CC(C)[C@H](CO)Nc1nc(N(C)CCc2ccc(O)c(O)c2)c2nnn(C(C)C)c2n1`: the IC50 in assay [1] was above 100 µM.
As to `CC(C)[C@H](CO)Nc1nc(NCc2ccccc2)c2nnn(C(C)C)c2n1`, the IC50 is 50 µM in assay [1] and 15 µM in assay [2].
With `CC(C)[C@H](CO)Nc1nc(NCc2ccccc2)c2nnn(C)c2n1`, the concentration for half-maximal inhibition (IC50) is above 100 µM in assay [1] and 50 µM in assay [2].
The compound `CCC(CO)Nc1nc(NCc2cccc(Cl)c2O)c2nnn(C(C)C)c2n1` (centres unmarked) came in with an IC50 in assay [2] of 16 µM.
Still for that read-out and setting: with `CC[C@H](CO)Nc1nc(NCc2c(O)cc(Cl)cc2O)c2nnn(C(C)C)c2n1` the figure was 12 µM; with `CC[C@H](CO)Nc1nc(Nc2ccc(Cl)cc2)c2nnn(C(C)C)c2n1`, 27 µM.
For the compound `CC[C@H](CO)Nc1nc(N(C)CCc2ccc(O)c(O)c2)c2nnn(C(C)C)c2n1`, the IC50 in assay [1] and in assay [2] was above 100 µM throughout.
In turn, `CC[C@H](CO)Nc1nc(N(C)Cc2ccc(O)c(O)c2)c2nnn(C(C)C)c2n1` registered a concentration for half-maximal inhibition (IC50) in assay [1] above 100 µM.
On the same count and under the same terms, with `CCC(CO)Nc1nc(NC(CO)c2ccccc2)c2nnn(C(C)C)c2n1` (centres unmarked) the figure was above 100 µM; with `CC[C@H](CO)Nc1nc(NCc2ccccc2)c2nnn(C)c2n1`, above 100 µM.
In assay [1], `CC[C@H](CO)Nc1nc(NCc2ccccc2)c2nnn(C(C)C)c2n1` [2-[1(R)-Hydroxymethylpropylamino]-6-benzylamino-9-isopropyl-8-azapurine] showed a half-inhibitory concentration (IC50) above 100 µM.

Values taken from patent US7816350B2, “Substituted [1,2,3] triazolo[4,5-D]pyrimidines as cdk inhibitors” (Institute of Experimental Botany ASCR, priority 2002, dated 2010).
